Earlier results as cited in patent US5665379A, “Lipid particle forming matrix, preparation and use thereof” (priority 1990, dated 1997).

In the case of `CCCCCCCCCCCCCCCC(=O)OC(CC(=O)[O-])C[N+](C)(C)C` (stereo not shown) [palmitoylcarnitine], the “Absorption enhancement in the gut (in words)” value is listed as “acts as an absorption enhancer”.
